Experimental data reported in US20240183860A1, “Chimeric ABC Transporters and Screening Methods” (Genentech, Inc., priority 2021, published 2024).
Converted amounts (≈) assume the structure as drawn. “Also recorded” adds a separate entry of the source. Bridge positions count the residues as written; N and C are the ends. Square brackets hold non-standard residues; d marks the D form. Peptide text beside a SMILES is read from it. NMeF = CN[C@@H](Cc1ccccc1)C(=O)O

Columns and labels:
[1] = tested on: E. coli CFT073 lptD(imp4213) cells; test: Electron microscopy of inhibitor-exposed cells (membrane phenotype, LPS transport); type: cell-based, Escherichia coli
From the text: In some embodiments, one or more functional assays may be performed to test the effect of molecules identified in a screen on the function of the parental ABC transporter. For example, in some cases, a molecule that binds to the periplasmic, extracellular, and/or luminal face of an ABC transporter acts as an inhibitor of the transporter. For example, if inhibition of an ABC transporter activity is expected to result in loss of cell viability or reduction of cell growth, for example, then a cell viability or growth assay can be conducted to determine if presence of the identified molecule affects these parameters. In some cases, other assays may be conducted to determine the impact of a molecule on the function of the transporter. In some cases, the transport of the transporter's substrate in the presence and absence of the molecule can be tested. […] Lack of LPS transport causes a stacking of inner and outer membranes at the surface of a bacterial cell that is clearly visible by EM. Appropriate functional assays for the ABC transporter in question are known or may be readily developed based on knowledge in the art.
Electron microscopy of E. coli CFT073 lptD(imp4213) or CFT073 lptD(imp4213) msbA-cond-ko cells rescued with pLMG18 plasmids expressing the indicated E. coli MsbA mutants was performed as described previously (Ho et al., 2018). […]

[2] = biological target: Enterobacter cloacae MsbA (EnMsbA); test: MsbA ATPase assay, amphipol-reconstituted homologue; type: biochemical; conditions: FIGS. 13A, 13C
Experimental: (§1) The ATPase activity of MsbA was measured using a Transcreener ADP2 FP Assay (BellBrook Labs). […] The final condition for the reaction was MsbA enzyme, 50 μM ATP in 50 mM Tris pH 7.5, 10 mM MgCl2, 1% glycerol, 0.1% bovine gamma globulin, 1 mM dithiothreitol (DTT), 0.007% Brij-35 and 0.5% dimethylsulfoxide (DMSO). The following concentrations were used for each MsbA variant: 5 nM of EcMsbA, EnMsbA, KpMsbA and 80 nM PaMsbA reconstituted in amphipol, 15 nM EcMsbA and EcMsbA-chim5 in LMNG detergent, 22 nM EcMsbA and 27 nM EcMsbA-12G7 complex in aDDM detergent. The enzyme reaction was incubated for 1 hour at room temperature, then quenched by adding the Transcreener Detection Buffer. The IC50 was determined by fitting the inhibition dose-response curve with a nonlinear four-parameter inhibition model (GraphPad Prism).

[3] = biological target: T1, Pseudomonas aeruginosa MsbA (PaMsbA) (Pseudomonas aeruginosa, UniProt Q9HUG8); test: as above; type: biochemical
T1 construct: FLAG; made in house; host or cells: not restated ('similarly expressed')
T1 sequence (Q9HUG8 1-603): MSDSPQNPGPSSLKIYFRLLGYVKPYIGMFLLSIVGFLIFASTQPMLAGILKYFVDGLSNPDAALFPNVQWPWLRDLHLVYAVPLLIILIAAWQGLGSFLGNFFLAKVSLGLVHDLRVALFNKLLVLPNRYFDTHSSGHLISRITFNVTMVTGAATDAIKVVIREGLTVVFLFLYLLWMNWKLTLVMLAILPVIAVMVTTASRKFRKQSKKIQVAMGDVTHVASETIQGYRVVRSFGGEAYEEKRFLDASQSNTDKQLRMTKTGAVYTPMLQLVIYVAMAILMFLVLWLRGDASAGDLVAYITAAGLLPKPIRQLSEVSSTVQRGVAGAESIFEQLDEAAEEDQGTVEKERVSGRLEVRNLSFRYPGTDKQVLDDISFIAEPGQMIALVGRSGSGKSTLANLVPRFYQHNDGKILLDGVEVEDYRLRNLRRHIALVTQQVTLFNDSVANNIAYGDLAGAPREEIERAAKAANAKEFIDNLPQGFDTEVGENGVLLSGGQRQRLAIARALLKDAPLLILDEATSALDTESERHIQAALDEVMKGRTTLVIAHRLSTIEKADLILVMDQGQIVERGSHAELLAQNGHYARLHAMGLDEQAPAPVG
Experimental: as §1

[4] = biological target: Klebsiella pneumoniae MsbA (KpMsbA); test: as above; type: biochemical; conditions: FIGS. 13A, 13C
Experimental: as §1

[5] = tested on: imp E. coli (lptD(imp4213)), E. coli MsbA; test: Broth MIC assay; type: cell-based, Escherichia coli; conditions: cells containing the lptD(imp4213) allele
Experimental: Broth MICs were determined in cation-adjusted Mueller-Hinton broth with 0.002% Tween-80, as previously described (Ho et al., 2018).

[6] = tested on: EcMsbA-chim5 (MsbA-chimera5); test: biochemical; type: biochemical, Escherichia coli; conditions: ratio of ATPase IC50s
Experimental: as §1

[7] = biological target: T2, EcMsbA-chim5 (MsbA-chimera5) (Escherichia coli, UniProt P60752, D53T/D54Y/D60K/DEL268-292/DEL57-57/F265A/G55I/I169L/INS266IAYAGNRVIHEDMRSGALIAFIAAL/INS66P/K49D/K58D/L171A/L263V/L51V/L52I/M159V/M67L/P68V/S164D/S62H/T59E/V63D/Y163E); test: biochemical; type: biochemical
T2 construct: FLAG (N); made in house; host or cells: E. coli Rosetta 2 (DE3), pET-52b vector
Experimental: as §1

E. coli MsbA (EcMsbA) = biological target: T3, E. coli MsbA (EcMsbA) (Escherichia coli, UniProt P60752); test: MsbA ATPase assay (Transcreener ADP2 FP); type: biochemical
T3 construct: FLAG (N); made in house; host or cells: E. coli (strain for the WT protein not restated)
Experimental: as §1

[8] = tested on: WT E. coli cells with an intact outer membrane (CFT073, UPEC WT); test: Cellular IC50 determination (BacTiter-Glo, 6 hours); type: cell-based, Escherichia coli
Experimental: The cellular IC50's of various bacterial strains (Table 2) were determined.
200 nL aliquots of eight 2-fold dilutions of each compound were dispensed in duplicate into 384-well plates using an Echo Liquid Handler (Labcyte). Strains were grown in cation-adjusted Mueller Hinton Broth with 0.002% Tween overnight for 16 hours, washed with PBS, resuspended at OD600=1 in cation-adjusted Mueller Hinton Broth with 0.002% Tween and 10% glycerol, and frozen in […] aliquots. For each experiment, aliquots were thawed on ice and diluted 1:1000 into cation-adjusted Mueller Hinton Broth with 0.002% Tween. 10 μL cells/well were added to 384-well plates containing compound. Plates were incubated for 6 hours at 37° C., then 10 μL BacTiter-Glo reagent (Promega) was added to each well and luminescence was measured. IC50's were calculated using Genedata Screener software.

T3 sequence (P60752 whole entry): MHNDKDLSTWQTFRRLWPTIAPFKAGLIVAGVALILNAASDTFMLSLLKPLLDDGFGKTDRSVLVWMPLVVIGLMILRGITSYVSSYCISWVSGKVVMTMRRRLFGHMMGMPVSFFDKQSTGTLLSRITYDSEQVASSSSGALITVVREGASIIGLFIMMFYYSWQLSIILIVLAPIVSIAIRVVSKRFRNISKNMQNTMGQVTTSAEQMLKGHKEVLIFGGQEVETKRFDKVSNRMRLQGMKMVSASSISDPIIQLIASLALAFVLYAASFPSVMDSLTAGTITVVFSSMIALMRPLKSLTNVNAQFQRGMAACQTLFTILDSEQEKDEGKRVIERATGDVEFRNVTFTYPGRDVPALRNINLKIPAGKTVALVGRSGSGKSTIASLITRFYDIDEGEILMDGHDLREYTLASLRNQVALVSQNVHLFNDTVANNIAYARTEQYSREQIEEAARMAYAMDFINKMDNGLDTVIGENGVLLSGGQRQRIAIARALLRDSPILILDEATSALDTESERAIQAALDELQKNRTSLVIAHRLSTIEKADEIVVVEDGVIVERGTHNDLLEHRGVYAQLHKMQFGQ
T2 sequence (P60752 with tags, fused parts or gaps with the stated changes): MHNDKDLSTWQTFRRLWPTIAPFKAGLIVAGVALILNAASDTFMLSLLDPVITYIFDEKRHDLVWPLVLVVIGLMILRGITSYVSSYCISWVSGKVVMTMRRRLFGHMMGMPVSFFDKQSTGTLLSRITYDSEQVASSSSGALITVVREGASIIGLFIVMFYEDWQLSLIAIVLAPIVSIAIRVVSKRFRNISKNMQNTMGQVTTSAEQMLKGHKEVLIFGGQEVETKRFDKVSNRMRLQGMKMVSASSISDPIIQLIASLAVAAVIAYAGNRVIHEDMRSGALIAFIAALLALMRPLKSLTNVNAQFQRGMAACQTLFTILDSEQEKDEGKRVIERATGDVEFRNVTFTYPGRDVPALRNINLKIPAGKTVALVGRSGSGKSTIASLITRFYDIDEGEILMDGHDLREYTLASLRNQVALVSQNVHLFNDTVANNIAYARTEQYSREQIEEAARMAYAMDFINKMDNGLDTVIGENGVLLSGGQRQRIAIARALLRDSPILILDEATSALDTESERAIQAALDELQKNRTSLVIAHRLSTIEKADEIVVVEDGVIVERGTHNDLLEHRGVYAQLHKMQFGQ

SMILES: CC(C)C[C@@H]1NC(=O)[C@H](Cc2c[nH]c3ccccc23)NC(=O)[C@H](Cc2c[nH]c3ccccc23)NC(=O)[C@H](Cc2ccccc2)NC(=O)CSC[C@@H](C(=O)NCC(N)=O)NC(=O)[C@H](C(C)C)NC(=O)[C@H](Cc2ccccc2)N(C)C(=O)[C@H](Cc2c[nH]c3ccccc23)NC(=O)[C@H](Cc2c[nH]c3ccccc23)NC(=O)[C@H](CO)NC(=O)[C@H](C(C)C)NC(=O)[C@H](CC(=O)O)NC(=O)[C@H](CC(=O)O)NC(=O)[C@H](Cc2c[nH]c3ccccc23)NC1=O [Compound G1118] ({CH2CO}-FWWLWDDVSWW[NMeF]VCG-NH2; thioether N-14)
- LPS transport activity of E. coli MsbA [1]: inhibit LPS transport activity
- inner membrane elaboration / membrane stacking phenotype ([1]; electron micrographs, imp cells treated with inhibitor): gave rise to the distinctive inner membrane elaboration phenotype; also recorded: mirrored the distinctive inner membrane elaboration phenotype
- IC50 [2]: ~240 nM
- IC50 [3]: 3100 nM
- IC50 [4]: ~120 nM
- minimum inhibitory concentration (MIC) [5]: ~210 µg/mL (≈ 101 µM)
- lower potency on purified MsbA-chim5 versus EcMsbA [6]: > 30 fold
- IC50 [7]: > 5000 nM
- IC50 (E. coli MsbA (EcMsbA); IC50 for binding to MsbA in an imp E. coli strain, worded as binding to MsbA in imp E. coli strain (outer membrane permeable), FIG. 3F): 5 nM
- IC50 (E. coli MsbA (EcMsbA); half-maximum inhibitory concentration (IC50), ATPase activity of EcMsbA, purified WT EcMsbA, FIG. 3C): ~110 nM
- activity on WT E. coli with an intact outer membrane [8]: no activity was observed
